Reference: patent US10509036B2, “Methods of selecting and isolating cancer stem cells” (The Regents of the University of California, priority 2014, dated 2019)

Test system: neuroblastoma cells (low NBDG and high NBDG)
Assay: MTS assay (CellTiter 96 AQueous cell proliferation assay), low NBDG versus high NBDG neuroblastoma cells
Format: cell-based, human

SMILES | resistance of low NBDG cells to the chemotherapy drug compared with high NBDG cells (MTS assay)
COc1cccc2c1C(=O)c1c(O)c3c(c(O)c1C2=O)C[C@@](O)(C(=O)CO)C[C@@H]3O[C@H]1C[C@H](N)[C@H](O)[C@H](C)O1 [doxorubicin] | more resistant
CC[C@]1(O)C[C@H]2CN(CCc3c([nH]c4ccccc34)[C@@](C(=O)OC)(c3cc4c(cc3OC)N(C=O)[C@H]3[C@@](O)(C(=O)OC)[C@H](OC(C)=O)[C@]5(CC)C=CCN6CC[C@]43[C@@H]65)C2)C1 [vincristine] | more resistant
